# ChEMBL document CHEMBL4507279, “Data for DCP probe BI-9627” (2021)
# How the values were obtained:
# [1] = test system: Tyrosine-protein kinase ABL1 (Homo sapiens), P00519 [F317L]; conditions: Compound concentration 1000.0 nM
# [2] = molecular target: Cyclin-dependent kinase-like 2 (Homo sapiens) (UniProt Q92772); conditions: Compound concentration 1000.0 nM
# [3] = molecular target: Ephrin type-A receptor 2 (Homo sapiens) (UniProt P29317); conditions: Compound concentration 1000.0 nM
# [4] = test system: Receptor-type tyrosine-protein kinase FLT3 (Homo sapiens), P36888 [UNDEFINED MUTATION]; conditions: Compound concentration 1000.0 nM
# [5] = molecular target: Mitogen-activated protein kinase kinase kinase kinase 3 (Homo sapiens) (UniProt Q8IVH8); conditions: Compound concentration 1000.0 nM
# [6] = molecular target: Fibroblast growth factor receptor 3 (Homo sapiens) (UniProt P22607); conditions: Compound concentration 1000.0 nM
# [7] = test system: Epidermal growth factor receptor (Homo sapiens), P00533 [UNDEFINED MUTATION]; conditions: Compound concentration 1000.0 nM
# [8] = molecular target: Mitogen-activated protein kinase kinase kinase 12 (Homo sapiens) (UniProt Q12852); conditions: Compound concentration 1000.0 nM
# [9] = molecular target: BDNF/NT-3 growth factors receptor (Homo sapiens) (UniProt Q16620); conditions: Compound concentration 1000.0 nM
# [10] = molecular target: Serine/threonine-protein kinase WNK3 (Homo sapiens) (UniProt Q9BYP7); conditions: Compound concentration 1000.0 nM
# [11] = molecular target: Calcium/calmodulin-dependent protein kinase type II subunit delta (Homo sapiens) (UniProt Q13557); conditions: Compound concentration 1000.0 nM
# [12] = molecular target: Fibroblast growth factor receptor 2 (Homo sapiens) (UniProt P21802); conditions: Compound concentration 1000.0 nM
# [13] = molecular target: Serine/threonine-protein kinase 17B (Homo sapiens) (UniProt O94768); conditions: Compound concentration 1000.0 nM
# [14] = test system: Tyrosine-protein kinase ABL1 (Homo sapiens), P00519 [Q252H]; conditions: Compound concentration 1000.0 nM
# [15] = molecular target: SNF-related serine/threonine-protein kinase (Homo sapiens) (UniProt Q9NRH2); conditions: Compound concentration 1000.0 nM
# [16] = molecular target: Fibroblast growth factor receptor 1 (Homo sapiens) (UniProt P11362); conditions: Compound concentration 1000.0 nM
# [17] = molecular target: Vascular endothelial growth factor receptor 1 (Homo sapiens) (UniProt P17948); conditions: Compound concentration 1000.0 nM
# [18] = molecular target: Calcium/calmodulin-dependent protein kinase type 1G (Homo sapiens) (UniProt Q96NX5); conditions: Compound concentration 1000.0 nM
# [19] = molecular target: Cyclin-dependent kinase-like 5 (Homo sapiens) (UniProt O76039); conditions: Compound concentration 1000.0 nM
# [20] = molecular target: Sodium-dependent dopamine transporter (Homo sapiens, UniProt Q01959); experiment: GPCRScan assay: inhibition of DAT; parameters: radioligand conc. used [nm] 3.6 – 16.0, parental cells stable HEK
# [21] = molecular target: Bone morphogenetic protein receptor type-2 (Homo sapiens) (UniProt Q13873); conditions: Compound concentration 1000.0 nM
# [22] = test system: Epidermal growth factor receptor (Homo sapiens), P00533 [UNDEFINED MUTATION]; conditions: Compound concentration 1000.0 nM; remark: listed apart in the source
# [23] = molecular target: Receptor tyrosine-protein kinase erbB-4 (Homo sapiens) (UniProt Q15303); conditions: Compound concentration 1000.0 nM
# [24] = molecular target: Mitogen-activated protein kinase 15 (Homo sapiens) (UniProt Q8TD08); conditions: Compound concentration 1000.0 nM
# [25] = molecular target: Serine/threonine-protein kinase PLK1 (Homo sapiens) (UniProt P53350); conditions: Compound concentration 1000.0 nM
# [26] = molecular target: Serine/threonine-protein kinase RIO3 (Homo sapiens) (UniProt O14730); conditions: Compound concentration 1000.0 nM
# [27] = molecular target: Mitogen-activated protein kinase 13 (Homo sapiens) (UniProt O15264); conditions: Compound concentration 1000.0 nM
# [28] = molecular target: Ribosomal protein S6 kinase alpha-2 (Homo sapiens) (UniProt Q15349); conditions: Compound concentration 1000.0 nM
# [29] = molecular target: Mitogen-activated protein kinase kinase kinase 14 (Homo sapiens) (UniProt Q99558); conditions: Compound concentration 1000.0 nM
# [30] = molecular target: MAP kinase-interacting serine/threonine-protein kinase 2 (Homo sapiens) (UniProt Q9HBH9); conditions: Compound concentration 1000.0 nM
# [31] = molecular target: Cyclin-dependent kinase 2 (Homo sapiens) (UniProt P24941); conditions: Compound concentration 1000.0 nM
# [32] = molecular target: Serine/threonine-protein kinase 16 (Homo sapiens) (UniProt O75716); conditions: Compound concentration 1000.0 nM
# [33] = molecular target: Serine/threonine-protein kinase LATS1 (Homo sapiens) (UniProt O95835); conditions: Compound concentration 1000.0 nM
# [34] = molecular target: Receptor-interacting serine/threonine-protein kinase 2 (Homo sapiens) (UniProt O43353); conditions: Compound concentration 1000.0 nM
# [35] = molecular target: Phosphorylase b kinase gamma catalytic chain, skeletal muscle/heart isoform (Homo sapiens) (UniProt Q16816); conditions: Compound concentration 1000.0 nM
# [36] = molecular target: Sodium-dependent noradrenaline transporter (Homo sapiens) (UniProt P23975); conditions: Compound concentration 10.0 uM
# [37] = molecular target: Leucine-rich repeat serine/threonine-protein kinase 2 (Homo sapiens) (UniProt Q5S007); conditions: Compound concentration 1000.0 nM
# [38] = molecular target: Hepatocyte growth factor receptor (Homo sapiens) (UniProt P08581); conditions: Compound concentration 1000.0 nM
# [39] = molecular target: Myosin-IIIa (Homo sapiens) (UniProt Q8NEV4); conditions: Compound concentration 1000.0 nM
# [40] = molecular target: Mast/stem cell growth factor receptor Kit (Homo sapiens) (UniProt P10721); conditions: Compound concentration 1000.0 nM
# Chain of Epidermal growth factor receptor (Homo sapiens), P00533 [UNDEFINED MUTATION] (P00533 whole entry, looked up, change not shown): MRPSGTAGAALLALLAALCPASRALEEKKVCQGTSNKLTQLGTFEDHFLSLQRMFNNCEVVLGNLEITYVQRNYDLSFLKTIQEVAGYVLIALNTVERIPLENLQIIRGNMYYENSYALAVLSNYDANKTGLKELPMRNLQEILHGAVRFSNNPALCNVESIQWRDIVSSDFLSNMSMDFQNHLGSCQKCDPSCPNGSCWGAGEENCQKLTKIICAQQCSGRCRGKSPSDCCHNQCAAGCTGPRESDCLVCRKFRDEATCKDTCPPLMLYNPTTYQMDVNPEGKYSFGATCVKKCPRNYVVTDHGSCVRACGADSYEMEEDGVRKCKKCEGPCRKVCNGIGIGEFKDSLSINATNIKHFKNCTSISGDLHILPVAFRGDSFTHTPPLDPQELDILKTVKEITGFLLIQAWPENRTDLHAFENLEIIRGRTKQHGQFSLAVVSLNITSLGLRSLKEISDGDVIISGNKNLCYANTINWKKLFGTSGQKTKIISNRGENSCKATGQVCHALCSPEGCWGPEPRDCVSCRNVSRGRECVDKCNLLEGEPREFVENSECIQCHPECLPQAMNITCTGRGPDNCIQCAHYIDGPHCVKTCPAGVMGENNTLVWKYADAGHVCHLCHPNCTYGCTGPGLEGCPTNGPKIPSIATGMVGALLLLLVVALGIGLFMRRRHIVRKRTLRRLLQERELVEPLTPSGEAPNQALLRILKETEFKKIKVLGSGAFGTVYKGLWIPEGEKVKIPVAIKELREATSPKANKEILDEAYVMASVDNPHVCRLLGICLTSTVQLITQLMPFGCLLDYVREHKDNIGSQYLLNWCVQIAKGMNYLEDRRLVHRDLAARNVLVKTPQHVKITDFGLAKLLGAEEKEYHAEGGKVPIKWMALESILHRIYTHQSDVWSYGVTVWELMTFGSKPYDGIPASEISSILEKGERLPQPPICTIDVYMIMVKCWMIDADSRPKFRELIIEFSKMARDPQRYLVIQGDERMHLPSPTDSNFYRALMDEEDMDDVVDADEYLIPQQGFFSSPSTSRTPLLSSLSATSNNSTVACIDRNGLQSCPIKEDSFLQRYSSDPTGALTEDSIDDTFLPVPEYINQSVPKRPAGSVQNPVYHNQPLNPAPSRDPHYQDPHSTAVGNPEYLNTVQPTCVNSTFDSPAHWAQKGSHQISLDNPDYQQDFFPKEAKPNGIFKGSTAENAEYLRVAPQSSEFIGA
# Chain of Sodium-dependent dopamine transporter (Q01959 whole entry): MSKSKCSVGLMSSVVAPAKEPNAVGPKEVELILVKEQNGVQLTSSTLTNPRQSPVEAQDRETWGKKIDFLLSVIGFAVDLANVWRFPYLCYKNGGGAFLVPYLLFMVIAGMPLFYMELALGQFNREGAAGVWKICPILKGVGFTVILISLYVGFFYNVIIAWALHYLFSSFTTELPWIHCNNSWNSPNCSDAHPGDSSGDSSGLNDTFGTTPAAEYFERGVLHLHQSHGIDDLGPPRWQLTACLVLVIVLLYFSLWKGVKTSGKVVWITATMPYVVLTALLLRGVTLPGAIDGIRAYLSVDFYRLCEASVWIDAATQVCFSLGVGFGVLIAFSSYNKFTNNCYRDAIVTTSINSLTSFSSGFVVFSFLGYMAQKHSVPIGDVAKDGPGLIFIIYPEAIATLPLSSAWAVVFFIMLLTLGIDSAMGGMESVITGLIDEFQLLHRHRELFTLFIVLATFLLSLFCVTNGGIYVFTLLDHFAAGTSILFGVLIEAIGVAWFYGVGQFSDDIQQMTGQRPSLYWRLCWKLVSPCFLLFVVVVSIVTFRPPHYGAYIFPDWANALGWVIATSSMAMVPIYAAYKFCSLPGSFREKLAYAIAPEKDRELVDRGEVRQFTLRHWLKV
# Chain of Mitogen-activated protein kinase kinase kinase kinase 3 (Homo sapiens) (Q8IVH8 whole entry): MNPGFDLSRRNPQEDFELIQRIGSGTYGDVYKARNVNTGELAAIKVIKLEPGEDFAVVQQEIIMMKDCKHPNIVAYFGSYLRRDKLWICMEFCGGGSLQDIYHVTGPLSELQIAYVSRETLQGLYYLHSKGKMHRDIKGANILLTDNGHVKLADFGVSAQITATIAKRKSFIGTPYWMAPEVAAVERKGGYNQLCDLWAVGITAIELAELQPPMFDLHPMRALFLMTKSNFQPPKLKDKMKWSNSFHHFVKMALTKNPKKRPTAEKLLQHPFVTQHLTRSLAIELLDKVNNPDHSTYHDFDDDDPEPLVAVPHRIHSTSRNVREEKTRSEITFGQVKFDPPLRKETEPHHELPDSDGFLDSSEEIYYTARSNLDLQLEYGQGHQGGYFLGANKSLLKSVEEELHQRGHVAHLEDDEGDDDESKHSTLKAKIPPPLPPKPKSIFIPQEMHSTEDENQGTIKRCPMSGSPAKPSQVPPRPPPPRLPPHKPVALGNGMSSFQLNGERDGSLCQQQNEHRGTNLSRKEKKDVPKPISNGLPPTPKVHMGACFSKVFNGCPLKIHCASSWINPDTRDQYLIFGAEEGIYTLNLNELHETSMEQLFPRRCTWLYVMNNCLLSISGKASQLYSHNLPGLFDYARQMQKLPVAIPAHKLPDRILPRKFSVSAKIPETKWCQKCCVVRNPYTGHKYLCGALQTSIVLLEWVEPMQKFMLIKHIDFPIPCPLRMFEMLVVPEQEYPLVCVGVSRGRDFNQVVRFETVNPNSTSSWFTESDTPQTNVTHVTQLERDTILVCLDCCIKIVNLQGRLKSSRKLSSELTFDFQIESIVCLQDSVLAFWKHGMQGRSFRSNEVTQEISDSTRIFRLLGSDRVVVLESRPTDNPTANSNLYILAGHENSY
# Chain of Phosphorylase b kinase gamma catalytic chain, skeletal muscle/heart isoform (Homo sapiens) (Q16816 whole entry, looked up, canonical isoform): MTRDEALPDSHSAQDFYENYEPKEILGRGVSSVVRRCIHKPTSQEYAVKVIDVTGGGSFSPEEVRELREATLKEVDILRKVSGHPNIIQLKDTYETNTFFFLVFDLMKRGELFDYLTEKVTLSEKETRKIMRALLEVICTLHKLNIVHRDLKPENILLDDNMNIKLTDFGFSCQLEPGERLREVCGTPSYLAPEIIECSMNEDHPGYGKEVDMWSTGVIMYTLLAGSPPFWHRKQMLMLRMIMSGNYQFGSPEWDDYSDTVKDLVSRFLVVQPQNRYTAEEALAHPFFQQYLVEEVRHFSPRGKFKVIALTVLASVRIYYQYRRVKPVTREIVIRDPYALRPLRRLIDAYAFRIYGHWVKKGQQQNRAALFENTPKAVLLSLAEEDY
# Chain of MAP kinase-interacting serine/threonine-protein kinase 2 (Homo sapiens) (Q9HBH9 whole entry, looked up): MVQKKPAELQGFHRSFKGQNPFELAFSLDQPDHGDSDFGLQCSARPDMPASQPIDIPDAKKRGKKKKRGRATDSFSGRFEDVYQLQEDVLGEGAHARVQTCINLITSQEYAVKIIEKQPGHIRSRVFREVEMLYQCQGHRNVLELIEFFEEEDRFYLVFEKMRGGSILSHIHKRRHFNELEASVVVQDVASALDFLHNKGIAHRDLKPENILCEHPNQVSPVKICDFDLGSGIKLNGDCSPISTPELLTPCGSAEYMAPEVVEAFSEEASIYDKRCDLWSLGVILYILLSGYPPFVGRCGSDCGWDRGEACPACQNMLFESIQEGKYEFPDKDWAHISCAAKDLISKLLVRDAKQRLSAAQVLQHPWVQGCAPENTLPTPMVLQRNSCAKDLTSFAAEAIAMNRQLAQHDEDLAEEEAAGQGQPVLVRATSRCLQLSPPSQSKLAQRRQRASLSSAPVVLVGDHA
# Chain of Mitogen-activated protein kinase 15 (Homo sapiens) (Q8TD08 whole entry): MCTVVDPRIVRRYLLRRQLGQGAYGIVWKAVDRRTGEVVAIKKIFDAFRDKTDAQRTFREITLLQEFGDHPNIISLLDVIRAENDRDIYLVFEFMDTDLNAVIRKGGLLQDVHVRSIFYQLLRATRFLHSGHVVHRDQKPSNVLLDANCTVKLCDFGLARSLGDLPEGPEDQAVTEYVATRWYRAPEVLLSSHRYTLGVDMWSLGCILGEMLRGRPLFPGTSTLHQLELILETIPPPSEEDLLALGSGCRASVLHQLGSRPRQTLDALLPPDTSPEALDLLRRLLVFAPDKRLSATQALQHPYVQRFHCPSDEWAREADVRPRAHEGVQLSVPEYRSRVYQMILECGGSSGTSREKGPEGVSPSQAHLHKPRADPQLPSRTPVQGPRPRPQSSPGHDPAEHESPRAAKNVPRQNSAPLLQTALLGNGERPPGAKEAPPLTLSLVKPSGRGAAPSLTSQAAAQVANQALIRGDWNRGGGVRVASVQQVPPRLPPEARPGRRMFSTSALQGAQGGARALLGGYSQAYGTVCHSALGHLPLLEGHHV
# Chain of Receptor-interacting serine/threonine-protein kinase 2 (Homo sapiens) (O43353 whole entry, canonical isoform): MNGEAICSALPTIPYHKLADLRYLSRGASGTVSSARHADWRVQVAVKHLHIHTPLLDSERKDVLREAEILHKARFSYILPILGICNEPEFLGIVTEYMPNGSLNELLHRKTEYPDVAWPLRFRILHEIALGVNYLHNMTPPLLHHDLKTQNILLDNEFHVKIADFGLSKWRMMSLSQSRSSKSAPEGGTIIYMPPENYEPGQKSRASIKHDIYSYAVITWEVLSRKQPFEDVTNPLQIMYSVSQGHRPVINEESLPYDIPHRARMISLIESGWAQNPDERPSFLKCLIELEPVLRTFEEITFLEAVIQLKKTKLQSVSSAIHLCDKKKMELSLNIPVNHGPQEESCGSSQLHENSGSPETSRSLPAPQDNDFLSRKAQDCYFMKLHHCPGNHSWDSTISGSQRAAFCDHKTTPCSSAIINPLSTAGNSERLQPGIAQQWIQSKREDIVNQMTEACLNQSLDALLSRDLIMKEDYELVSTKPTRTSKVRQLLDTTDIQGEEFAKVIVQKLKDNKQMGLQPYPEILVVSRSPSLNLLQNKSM
# Chain of Serine/threonine-protein kinase 16 (Homo sapiens) (O75716 whole entry): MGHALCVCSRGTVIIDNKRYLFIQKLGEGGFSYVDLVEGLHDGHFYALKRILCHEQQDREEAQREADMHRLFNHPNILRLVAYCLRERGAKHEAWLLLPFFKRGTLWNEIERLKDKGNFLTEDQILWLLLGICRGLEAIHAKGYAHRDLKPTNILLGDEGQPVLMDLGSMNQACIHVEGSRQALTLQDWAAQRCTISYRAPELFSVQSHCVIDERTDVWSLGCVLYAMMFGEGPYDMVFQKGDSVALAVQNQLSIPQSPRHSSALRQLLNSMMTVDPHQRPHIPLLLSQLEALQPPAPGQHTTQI
compound,measurement,setting,value
CC(=O)N1CCC(c2ccc(C(=O)NC3=NCCN3)cc2C(F)(F)F)CC1 [BI 0054],residual activity,[1],87%
same,residual activity,[2],100%
same,residual activity,[3],94%
same,residual activity,[4],89%
same,residual activity,[5],95%
same,residual activity,[6],100%
same,residual activity,[7],89%
same,residual activity,[8],100%
same,residual activity,[9],100%
same,residual activity,[10],86%
same,residual activity,[11],100%
same,residual activity,[12],86%
same,residual activity,[13],100%
same,residual activity,[14],86%
same,residual activity,[15],98%
same,residual activity,[16],100%
same,residual activity,[17],100%
same,residual activity,[18],100%
same,residual activity,[19],79%
same,Ki,[20]; read-out: Ki,825 nM
same,Ki,[20]; read-out: pKi (converted),794 nM
same,residual activity,[21],100%
same,residual activity,[22],100%
same,residual activity,[23],100%
same,residual activity,[24],100%
same,residual activity,[25],88%
same,residual activity,[26],98%
same,residual activity,[27],75%
same,residual activity,[28],83%
same,residual activity,[29],95%
same,residual activity,[30],100%
same,residual activity,[31],100%
same,residual activity,[32],100%
same,residual activity,[33],93%
same,residual activity,[34],100%
same,residual activity,[35],100%
same,inhibition,[36],21.5%
same,residual activity,[37],100%
same,residual activity,[38],100%
same,residual activity,[39],100%
same,residual activity,[40],100%
CC(=O)N1CCC(c2ccc(C(=O)NC(=N)N)cc2C(F)(F)F)CC1 [BI 9627],residual activity,[1],100%
same,residual activity,[2],100%
same,residual activity,[3],100%
same,residual activity,[4],100%
same,residual activity,[5],100%
same,residual activity,[6],100%
same,residual activity,[7],100%
same,residual activity,[8],100%
same,residual activity,[9],100%
same,residual activity,[10],84%
same,residual activity,[11],100%
same,residual activity,[12],100%
same,residual activity,[13],100%
same,residual activity,[14],100%
same,residual activity,[15],100%
same,residual activity,[16],100%
same,residual activity,[17],100%
same,residual activity,[18],100%
same,residual activity,[19],82%
same,Ki,[20]; read-out: Ki,1520 nM
same,Ki,[20]; read-out: pKi (converted),1580 nM
same,residual activity,[21],100%
same,residual activity,[22],90%
same,residual activity,[23],100%
same,residual activity,[24],100%
same,residual activity,[25],90%
same,residual activity,[26],100%
same,residual activity,[27],83%
same,residual activity,[28],97%
same,residual activity,[29],100%
same,residual activity,[30],100%
same,residual activity,[31],100%
same,residual activity,[32],100%
same,residual activity,[33],72%
same,residual activity,[34],100%
same,residual activity,[35],100%
same,inhibition,[36],28.6%
same,residual activity,[37],100%
same,residual activity,[38],100%
same,residual activity,[39],100%
same,residual activity,[40],95%
